Reference: ChEMBL document CHEMBL1201862, “PubChem BioAssay data set” (2004)
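Tested at 5 concentrations; 48 h exposure; 96-well plates; endpoints linearly interpolated, else capped at highest concentration. GI50 marks 50% less growth.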 Active and inactive are the calls of the source. Rule as the data show it: active = GI50 up to about 1.1 µM and inactive = higher.

Assays:
Test in all cases: NCI tumour cell line growth inhibition, 48 h
[1] = system: LXFL 529
[2] = system: SNB-78
[3] = system: DLD-1
[4] = system: XF498
[5] = system: M19-MEL
[6] = system: RXF 631
[7] = system: HOP-18
[8] = system: DMS-114
[9] = system: DMS-273

Structure (SMILES): Cc1ncc(CCl)c2c1OC(C)(C)OC2
- GI50 [1]: > 100 µM (inactive)
- GI50 [2]: 39.7 µM (inactive)
- GI50 [3]: 50.9 µM (inactive)
- GI50 [4]: 78.2 µM (inactive)
- GI50 [5]: 74 µM (inactive)
- GI50 [6]: 30 µM (inactive)
- GI50 [7]: 21.1 µM (inactive)
- GI50 [8]: > 100 µM (inactive)

Structure (SMILES): Cn1sc2ccccc2c1=S
- GI50 [1]: 14 µM (inactive)
- GI50 [2]: 15 µM (inactive)
- GI50 [3]: 3.07 µM (inactive)
- GI50 [4]: 11.9 µM (inactive)
- GI50 [5]: 4.59 µM (inactive)
- GI50 [9]: 5.64 µM (inactive)
- GI50 [7]: 11.2 µM (inactive)
- GI50 [8]: 2.58 µM (inactive)

Structure (SMILES): COc1ccc(C(=O)c2c(C(C(=O)c3ccc(OC)cc3)C(=O)c3ccc(OC)cc3)n(C(=O)c3ccc(OC)cc3)c3ccccc23)cc1
- GI50 [1]: > 100 µM (inactive)
- GI50 [2]: > 100 µM (inactive)
- GI50 [3]: > 100 µM (inactive)
- GI50 [4]: > 100 µM (inactive)
- GI50 [5]: > 100 µM (inactive)
- GI50 [9]: > 100 µM (inactive)
- GI50 [8]: > 100 µM (inactive)

Structure (SMILES): CC(C)=CCC/C(C)=C/Cc1c(O)ccc2c1[nH]c1cc(O)c(C)cc12
- GI50 [1]: 10.1 µM (inactive)
- GI50 [2]: > 25 µM (inactive)
- GI50 [3]: 14.1 µM (inactive)
- GI50 [4]: 24.7 µM (inactive)
- GI50 [5]: 15.5 µM (inactive)
- GI50 [9]: 11 µM (inactive)
- GI50 [8]: 13.8 µM (inactive)

Structure (SMILES): Cc1cc(NS(=O)(=O)c2ccc(NC(=O)c3cccn4c(=O)c5ccccc5nc34)cc2)no1
- GI50 [1]: > 100 µM (inactive)
- GI50 [2]: > 100 µM (inactive)
- GI50 [3]: > 100 µM (inactive)
- GI50 [4]: > 100 µM (inactive)
- GI50 [5]: > 100 µM (inactive)
- GI50 [9]: > 100 µM (inactive)
- GI50 [6]: > 100 µM (inactive)
- GI50 [7]: > 100 µM (inactive)
- GI50 [8]: > 100 µM (inactive)

Structure (SMILES): Cc1nc(Nc2ccc(Cl)cc2)sc1C(=O)NNc1ccc([N+](=O)[O-])cc1[N+](=O)[O-]
- GI50 [1]: 17.1 µM (inactive)
- GI50 [2]: 39.1 µM (inactive)
- GI50 [3]: 14.2 µM (inactive)
- GI50 [4]: 16.9 µM (inactive)
- GI50 [5]: 22 µM (inactive)
- GI50 [9]: 19.5 µM (inactive)
- GI50 [7]: 14 µM (inactive)
- GI50 [8]: 14.6 µM (inactive)

Structure (SMILES): COc1cc(O)c(C(=O)C2Cc3ccccc32)c(OC)c1 (centres undefined)
- GI50 [1]: 34 µM (inactive)
- GI50 [2]: > 100 µM (inactive)
- GI50 [3]: 46.2 µM (inactive)
- GI50 [9]: 43.4 µM (inactive)
- GI50 [6]: 86.9 µM (inactive)
- GI50 [7]: 34.4 µM (inactive)
- GI50 [8]: 27.4 µM (inactive)

Structure (SMILES): Cc1cc(=O)oc2c(C3=NN(C=O)C(c4ccccc4)C3)c(O)ccc12 (centres undefined)
- GI50 [1]: > 100 µM (inactive)
- GI50 [2]: 24.3 µM (inactive)
- GI50 [3]: > 100 µM (inactive)
- GI50 [4]: 18.7 µM (inactive)
- GI50 [5]: > 100 µM (inactive)
- GI50 [9]: > 100 µM (inactive)
- GI50 [6]: 25.2 µM (inactive)
- GI50 [7]: > 100 µM (inactive)
- GI50 [8]: > 100 µM (inactive)

Structure (SMILES): CC/C=C/c1cc2c(c3[nH]ccc13)[C@@H](C)CC2C.CC/C=C/c1cc2cc[nH]c2c2c1C(C)C[C@@H]2C.CCc1cc2c(c3[nH]ccc13)[C@@H](C)CC2C (some centres undefined)
- GI50 [1]: 16.4 µM (inactive)
- GI50 [2]: 17.2 µM (inactive)
- GI50 [3]: 13.5 µM (inactive)
- GI50 [5]: 18.3 µM (inactive)
- GI50 [9]: 15.4 µM (inactive)
- GI50 [7]: 13.5 µM (inactive)
- GI50 [8]: 16.8 µM (inactive)

Structure (SMILES): CCN(CCO)CCNc1ccc(C)c2sc3ccccc3c(=O)c12
- GI50 [1]: 2.77 µM (inactive)
- GI50 [2]: 7.05 µM (inactive)
- GI50 [3]: 3.83 µM (inactive)
- GI50 [4]: 3.31 µM (inactive)
- GI50 [5]: 2 µM (inactive)
- GI50 [9]: 2.36 µM (inactive)
- GI50 [7]: 11.9 µM (inactive)
- GI50 [8]: 7.67 µM (inactive)

Structure (SMILES): CCOC(=O)C(C)Sc1nnc(COc2ccccc2OC)n1-c1ccccc1 (centres undefined)
- GI50 [1]: 28.8 µM (inactive)
- GI50 [2]: > 100 µM (inactive)
- GI50 [3]: 37.2 µM (inactive)
- GI50 [5]: > 100 µM (inactive)
- GI50 [9]: > 100 µM (inactive)
- GI50 [7]: 77.4 µM (inactive)
- GI50 [8]: 14.1 µM (inactive)

Structure (SMILES): Nn1c(-c2ccccc2Cl)nc2ccccc2c1=O
- GI50 [1]: > 100 µM (inactive)
- GI50 [2]: > 100 µM (inactive)
- GI50 [3]: > 100 µM (inactive)
- GI50 [4]: > 100 µM (inactive)
- GI50 [5]: > 100 µM (inactive)
- GI50 [9]: > 100 µM (inactive)
- GI50 [6]: > 100 µM (inactive)
- GI50 [7]: 44.8 µM (inactive)
- GI50 [8]: > 100 µM (inactive)

Structure (SMILES): O=c1[nH]c(=O)n(C2OC(CO)C(O)C2O)cc1/N=N/NCc1ccccc1 (centres undefined)
- GI50 [1]: 98.2 µM (inactive)
- GI50 [2]: > 100 µM (inactive)
- GI50 [3]: > 60.1 µM (inactive)
- GI50 [4]: > 100 µM (inactive)
- GI50 [5]: > 100 µM (inactive)
- GI50 [9]: > 71.6 µM (inactive)
- GI50 [6]: > 100 µM (inactive)
- GI50 [7]: > 100 µM (inactive)
- GI50 [8]: > 66.5 µM (inactive)

Structure (SMILES): CCCCCCCC(=O)OCC1OC(n2cc(F)c(=O)[nH]c2=O)C(N)C(OC(=O)CCCCCCC)C1O (centres undefined)
- GI50 [1]: 17.1 µM (inactive)
- GI50 [2]: 20 µM (inactive)
- GI50 [5]: 20.2 µM (inactive)
- GI50 [9]: 16.6 µM (inactive)

Structure (SMILES): CCCNC(=O)c1cc2ccccc2cc1C(=O)OC
- GI50 [1]: > 100 µM (inactive)
- GI50 [2]: > 100 µM (inactive)
- GI50 [3]: > 100 µM (inactive)
- GI50 [4]: > 100 µM (inactive)
- GI50 [5]: > 100 µM (inactive)
- GI50 [9]: > 100 µM (inactive)
- GI50 [6]: > 100 µM (inactive)
- GI50 [7]: > 100 µM (inactive)
- GI50 [8]: > 100 µM (inactive)

Structure (SMILES): [O-][S+](Cc1cc2c(cc1Br)OCO2)c1ccccc1 (centres undefined)
- GI50 [1]: 44 µM (inactive)
- GI50 [2]: > 100 µM (inactive)
- GI50 [3]: 24.2 µM (inactive)
- GI50 [5]: 44.5 µM (inactive)
- GI50 [9]: 58.9 µM (inactive)
- GI50 [7]: 41.3 µM (inactive)
- GI50 [8]: 23.2 µM (inactive)

Structure (SMILES): CCN(CC)C1CC(O[C@H]2C[C@](O)(C(=O)CO)Cc3c(O)c4c(c(O)c32)C(=O)c2c(OC)cccc2C4=O)OC(C)C1O (some centres undefined)
- GI50 [1]: 0.0458 µM (active)
- GI50 [2]: 0.08 µM (active)
- GI50 [3]: 0.0395 µM (active)
- GI50 [4]: 0.0752 µM (active)
- GI50 [5]: 0.0484 µM (active)
- GI50 [9]: < 0.0215 µM (active)
- GI50 [6]: 0.0655 µM (active)
- GI50 [8]: 0.0647 µM (active)

Structure (SMILES): CCN(CC)CCCC(C)Nc1c2cc(OC)cc(C)c2nc2c(C)c(Cl)ccc12 (centres undefined)
- GI50 [1]: 1.58 µM (inactive)
- GI50 [2]: 2.14 µM (inactive)
- GI50 [3]: 1.53 µM (inactive)
- GI50 [5]: 1.75 µM (inactive)
- GI50 [9]: 1.71 µM (inactive)
- GI50 [6]: 1.79 µM (inactive)
- GI50 [7]: 1.56 µM (inactive)
- GI50 [8]: 1.93 µM (inactive)

Structure (SMILES): CN(C)CCN1CCc2c([nH]c3ccccc23)C1c1cccnc1 (centres undefined)
- GI50 [2]: > 100 µM (inactive)
- GI50 [3]: > 100 µM (inactive)
- GI50 [5]: > 100 µM (inactive)
- GI50 [9]: > 100 µM (inactive)
- GI50 [7]: > 100 µM (inactive)
- GI50 [8]: > 100 µM (inactive)

Structure (SMILES): COC(=O)C1=C(C)N(NC(=O)OC(C)(C)C)C(=O)C1=P(c1ccccc1)(c1ccccc1)c1ccccc1
- GI50 [1]: > 100 µM (inactive)
- GI50 [2]: > 100 µM (inactive)
- GI50 [3]: > 100 µM (inactive)
- GI50 [4]: > 100 µM (inactive)
- GI50 [5]: > 100 µM (inactive)
- GI50 [9]: 35.2 µM (inactive)
- GI50 [7]: > 100 µM (inactive)
- GI50 [8]: > 100 µM (inactive)

Structure (SMILES): CCN(CC)CCOC(c1ccccc1)c1ccccc1.CCOC(=O)Nc1ccc(S(=O)(=O)OC)cc1.CCOC(=O)Nc1ccc(S(=O)(=O)OC)cc1.Nc1ccc(C(=O)O)c(O)c1
- GI50 [1]: > 100 µM (inactive)
- GI50 [2]: > 100 µM (inactive)
- GI50 [3]: > 100 µM (inactive)
- GI50 [5]: > 100 µM (inactive)
- GI50 [6]: > 100 µM (inactive)
- GI50 [7]: > 100 µM (inactive)
- GI50 [8]: > 100 µM (inactive)

Structure (SMILES): CC1CCC2[C@@H](C)COC3O[C@]4(C)CCC1C32OO4 (some centres undefined)
- GI50 [1]: 77.1 µM (inactive)
- GI50 [2]: > 100 µM (inactive)
- GI50 [3]: > 100 µM (inactive)
- GI50 [9]: > 100 µM (inactive)
- GI50 [7]: > 100 µM (inactive)
- GI50 [8]: > 100 µM (inactive)

Structure (SMILES): COc1ccc2cc3n(c(=O)c2c1)CCc1c-3cc(OC)c(OC)c1OC
- GI50 [1]: > 100 µM (inactive)
- GI50 [2]: > 100 µM (inactive)
- GI50 [3]: > 100 µM (inactive)
- GI50 [4]: 50.7 µM (inactive)
- GI50 [5]: > 100 µM (inactive)
- GI50 [9]: > 100 µM (inactive)
- GI50 [7]: > 100 µM (inactive)
- GI50 [8]: > 100 µM (inactive)
